“Also recorded” adds a separate entry of the source.
Key:
[1] = system: alpha-secretase; test: alpha-secretase activity in SHSY-5Y neuroblastoma cells (FIG. 10); format: cell-based; conditions: 10−9 M, versus Bryostatin-1
Text: Purified Bryoids at 10−^9 M are shown to increase alpha-secretase activity in SHSY-5Y neuroblastoma cells in FIG. 10.

[2] = system: B6C3-Tg (APPswe, PSEN1 dE9) 85Dbo/J mice; test: Morris water maze in APP/PS1 Alzheimer's disease mice; format: in vivo, mouse
Description: Mouse strain B6C3-Tg carrying mutant Swedish Amyloid precursor protein (sweAPP) and PS I (presenilin-1) genes associated with early onset Alzheimer's disease were subjected to water maze tests at 5-6 months of age.
In vivo studies were conducted using the Morris water maze to evaluate cognitive impairments and restoration in response to drug treatments. These studies used the mouse strain B6C3-Tg (APPswe, PSEN1 dE9) 85Dbo/J mice (MMRRC, Jackson Labs).

[3] = Solubility of Bryostatin-1 in solvents and oils by normal phase HPLC; format: physicochemical; conditions: for Concentration: theoretical 2.5 mg/100 mL
Description: Based on the hydrophobicity of Bryostatin-1, we developed an oil-based formulation of Bryostatin-1. […] Isopropyl alcohol, Extra Virgin olive oil, sesame oil, and vegetable oil were all used as solvents. Thirty microliters of the stock solution were placed in each of 4 clean, dry HPLC vials. The ethanol was allowed to evaporate, leaving 25 micrograms in the vial. Then, 1.0 mL of the solvent was placed in the vial and vortexed to ensure proper mixing. These samples were then injected on a normal phase HPLC system, with a gradient of 10%-70% isopropyl alcohol in hexane as the mobile phase (specifically developed for this experiment). The concentration of each vial theoretically should be 2.5 mg/100 mL.
The reason for the higher concentrations than the standard (isopropyl alcohol) is due to the baseline. While attempting a baseline subtraction for each oil, there was negative absorbance so the blank IPA sample was subtracted from each sample's baseline. While this incorporates a little more area for integration, the amount of Bryostatin in the oil was quantifiable.

[4] = system: SK-HEP1 liver cells; test: Metabolism by SK-HEP1 liver cells; format: in vitro ADME; conditions: within 24 h
[5] = Biodistribution of radio-labeled Bryostatin-1 by different administration routes; format: in vivo, mouse
Text: It is worth mentioning that oil formulations were used for […] and intraperitoneal studies. Aqueous formulations were used for intravenous administration and PET formulation for intranasal administration.

[6] = system: TS65DN transgenic mouse model of Down syndrome; test: Morris water maze in TS65DN mouse model of Down syndrome, intranasal; format: in vivo; conditions: PET formulation
Text: In this model, wild type mice improved over the 4 trials shown as a reduction in latency within the trial.
TS65DN mouse model of Down syndrome were purchased from MMRRC/Jackson Labs at 20-24 weeks of age and maintained in the LSUHSC-S vivarium. Segmentally trisomic Ts65Dn mice provide a postnatal model for Down syndrome.

[7] = over 72 h following intranasal administration

CCC/C=C/C=C/C(=O)O[C@H]1[C@H]2C=C3C[C@H]([C@@H](C)O)OC(=O)C[C@H](O)C[C@@H]4C[C@H](OC(C)=O)C(C)(C)[C@](O)(C[C@@H]5C/C(=C\C(=O)OC)C[C@H](/C=C/C(C)(C)[C@]1(OC(=O)C2)O3)O5)O4 [Bryoid B3, Bryostatin-3]
alpha-secretase activity [1]: improve the production of alpha-secretase over Bryostatin-1

CCC/C=C/C=C/C(=O)O[C@H]1/C(=C/C(=O)OC)C[C@H]2C[C@H]([C@@H](C)O)OC(=O)C[C@H](O)C[C@@H]3C[C@H](OC(C)=O)C(C)(C)[C@](O)(C[C@@H]4C/C(=C/C(=O)OC)C[C@H](/C=C/C(C)(C)[C@]1(O)O2)O4)O3 [Bryostatin-1]
protection against memory loss in water maze ([2]; 5 micrograms/mouse on alternative days orally in oil formulation, APP/PS1 mice 5-6 months of age, versus control animals): significant protection against Alzheimer's disease mediated memory loss | responses in water maze ([2]; i.p. treated mice): did not find that i.p. treated mice showed as good responses | Concentration ([3]; Extra Virgin Olive Oil): 2.9945 mg/100 mL | Concentration ([3]; Extra Virgin olive with mixed natural tocopherol antioxidants, lecithin and medium chain triglyceride emulsifiers): 2.4431 mg/100 mL | Concentration ([3]; Isopropyl Alcohol (standard)): 2.6035 mg/100 mL | Concentration ([3]; Vegetable Oil): 2.5475 mg/100 mL | solubility in oils ([3]; variety of oils): soluble in a variety of different types of oil; also recorded: soluble in a variety of oils, with the best results in Extra Virgin Olive Oil, Vegetable Oil, and Extra Virgin Olive Oil with excipients | metabolism by liver cells [4]: not significantly metabolized | tissue distribution of 3H-labeled tracer ([5]; 8 h following intranasal administration, normalized to CPM/g): most abundant in hippocampus, large intestine and urine | tissue distribution of 3H-labeled tracer ([5]; 12 h following intranasal administration): most abundant in hippocampus and urine | tissue distribution of 3H-labeled tracer ([5]; 24 h following intranasal administration): most abundant in hippocampus, urine and feces | tissue distribution of 3H-labeled tracer ([5]; 48 h following intranasal administration): most abundant in hippocampus and fat tissues | accumulation in different tissues ([5]; i.p. dosed group): highest tissue accumulations | accumulation in different tissues ([5]; i.v. dosed group): highest tissue accumulations | accumulation in hippocampus and lung ([5]; intranasal delivery, by 4 h): relative high levels of Bryostatin-1 accumulation | accumulation in different tissues ([5]; oral route (oil formulation)): lowest | Hippocampal content [5, 7]: relatively high hippocampal uptake rates were achieved and maintained; also recorded: slow rate of loss over 72 h | Lung content [5, 7]: a peak at 4 h and rapid excretion by 8 h; also recorded: rapid rate of appearance at 4h followed by rapid loss at 8 h | inter-trial water maze performance (latency) ([6]; 0.01 μg intranasal): did not show this same improvement | inter-trial water maze performance (latency) ([6]; 0.1 μg intranasal, p<0.05 compared to vehicle treated Down's mice): inter-trial interval improvement | inter-trial water maze performance (latency) ([6]; 1 μg intranasal, p<0.001 compared to vehicle treated transgenic Down's mice): significant improvement

bryostatin-3 26-ketone [Bryoid B16]
alpha-secretase activity [1]: improve the production of alpha-secretase over Bryostatin-1
